The NIST ThermoML archive (doi:10.1021/je301123j)

Assay: xn = mol fraction of the nth substance listed
Conditions: for surface tension liquid-gas: Ring tensiometer; for mass density / speed of sound / viscosity: 100 kPa, Liquid

CCN1CCCC1=O [1-ethyl-2-pyrrolidinone] + NCCO
Conditions | mass density [kg/m3] | speed of sound [m/s] | surface tension liquid-gas [mN/m] | viscosity [mPa·s]
293.15 K, x1 = 0.1 | 1014.83 | 1694.5 | 44.9 | 16.56
293.15 K, x1 = 0.2002 | 1012.06 | 1652.1 | 42.4 | 11.56
293.15 K, x1 = 0.2999 | 1008.77 | 1621.1 | 41.1 | 8.317
293.15 K, x1 = 0.4002 | 1006.13 | 1596 | 39.8 | 6.255
293.15 K, x1 = 0.4999 | 1002.53 | 1575.8 | 39.1 | 4.742
293.15 K, x1 = 0.5996 | 999.47 | 1554.4 | 38.3 | 3.762
293.15 K, x1 = 0.7002 | 998.41 | 1540.5 | 37.7 | 3.101
293.15 K, x1 = 0.7999 | 997.76 | 1529.1 | 37.3 | 2.641
293.15 K, x1 = 0.8997 | 997.35 | 1519.5 | 37.1 | 2.325
293.15 K, x1 = 1 | 997.91 | 1513.2 | 36.5 | 2.132
303.15 K, x1 = 0.1 | 1006.71 | 1661.1 | 43.7 | 10.66
303.15 K, x1 = 0.2002 | 1003.8 | 1617 | 41.2 | 7.68
303.15 K, x1 = 0.2999 | 1000.38 | 1582.4 | 39.8 | 6.051
303.15 K, x1 = 0.4002 | 997.65 | 1560.4 | 38.5 | 4.76
303.15 K, x1 = 0.4999 | 993.9 | 1539.5 | 37.6 | 3.526
303.15 K, x1 = 0.5996 | 990.78 | 1517.3 | 36.7 | 2.912
303.15 K, x1 = 0.7002 | 989.74 | 1503.1 | 36.1 | 2.446
303.15 K, x1 = 0.7999 | 989.12 | 1491.9 | 36.2 | 2.147
303.15 K, x1 = 0.8997 | 988.75 | 1481.7 | 35.7 | 1.918
303.15 K, x1 = 1 | 989.34 | 1475 | 35.2 | 1.777
313.15 K, x1 = 0.1 | 998.53 | 1628 | 42.7 | 7.237
313.15 K, x1 = 0.2002 | 995.42 | 1582.8 | 40.2 | 5.477
313.15 K, x1 = 0.2999 | 991.88 | 1552.5 | 38.7 | 4.386
313.15 K, x1 = 0.4002 | 989.14 | 1527.9 | 37 | 3.553
313.15 K, x1 = 0.4999 | 985.23 | 1502.9 | 35.9 | 2.733
313.15 K, x1 = 0.5996 | 982.08 | 1480.5 | 34.9 | 2.322
313.15 K, x1 = 0.7002 | 981.06 | 1466.1 | 34.5 | 1.99
313.15 K, x1 = 0.7999 | 980.46 | 1454.9 | 35 | 1.775
313.15 K, x1 = 0.8997 | 980.14 | 1444.2 | 34.6 | 1.616
313.15 K, x1 = 1 | 980.76 | 1437.6 | 34.2 | 1.515
323.15 K, x1 = 0.1 | 990.31 | 1594.2 | – | 5.201
323.15 K, x1 = 0.2002 | 986.95 | 1549.2 | – | 4.011
323.15 K, x1 = 0.2999 | 983.29 | 1517.9 | – | 3.311
323.15 K, x1 = 0.4002 | 980.53 | 1493.2 | – | 2.734
323.15 K, x1 = 0.4999 | 976.53 | 1467 | – | 2.183
323.15 K, x1 = 0.5996 | 973.35 | 1443.8 | – | 1.884
323.15 K, x1 = 0.7002 | 972.34 | 1429.5 | – | 1.659
323.15 K, x1 = 0.7999 | 971.78 | 1418 | – | 1.503
323.15 K, x1 = 0.8997 | 971.5 | 1407.6 | – | 1.384
323.15 K, x1 = 1 | 972.16 | 1400.6 | – | 1.31
